Test results: US8821839B2, “Compositions and methods for imparting a sunless tan with a vicinal diamine” (Conopco, Inc., priority 2010, dated 2014)

Assay: Individual Typologic Angle change on synthetic skin for 2.5% DHA plus adjuvant in citric acid/citrate buffer solution
Conditions: adjuvant at molar equivalent of 1% glycine; for ΔITA ° after 2 hours: pH about 5.5, 2 hours; for ΔITA ° after 4 hours: pH about 5.5, 4 hours
Experimental: The synthetic skin was pre-hydrated at 95% RH for 24 hours and then treated with portions of the samples at a dosage of 5 μL/cm^2. The treated synthetic skin was then stored at 35° C. and 40% RH for periods up to 24 hours. […]
Formulations in Table IV containing 2.5% DHA and the molar equivalent of 1% glycine as adjuvant in a citric acid/citrate buffer solution were prepared. The formulations were adjusted to a pH of about 5.5 to mimic the formulation pH after application to human skin.
Individual Typologic Angle results were obtained in a manner similar to the one described in Example 1.

SMILES	ΔITA ° after 2 hours [°]	ΔITA ° after 4 hours [°]
NC1CCCCC1N (stereo not shown) [1,2-diamino cyclohexane]	20 ± 3	35 ± 3
CC(N)CN (stereo not shown) [1,2-diamino propane]	17 ± 2	32 ± 3
NCCCN [1,3-diamino propane]	6 ± 3	16 ± 4
NCCCCN [1,4-diamino butane]	4 ± 2	12 ± 4
NC1C(O)OC(CO)C(O)C1N (stereo not shown) [3,4-diamino-6-hydroxymethyl-tetrahydro-pyrane 2,5-diol]	15 ± 3	23 ± 2
NCCN [Ethylene diamine]	16 ± 2	32 ± 3
NCC(=O)O [Glycine]	2 ± 1	7 ± 2
CN(C)CCN [N,N-dimethyl ethylene diamine]	4 ± 2	8 ± 2
